According to PubChem BioAssay (NCI):
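Growth conditions: 96-well plates. Treatment: test compound, 48 hours, 5 concentrations. Analysis: linear interpolation between bracketing concentrations; unreached endpoints set to highest concentration. Here, GI50 denotes the concentration required for 50% inhibition of growth. TGI: concentration producing complete growth inhibition.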

Tests used:
Experiment in all cases: growth of human tumour cells (NCI), 48 h
[1] = system: CAKI-1 renal
[2] = system: HCC-2998 colon
[3] = system: EKVX NSCLC
[4] = system: SF-295 CNS
[5] = system: SF-539 CNS
[6] = system: NCI-H522 lung
[7] = system: SNB-19 CNS
[8] = system: RPMI-8226 leukemia
[9] = system: SF-268 CNS

Compound	TGI [1] [µM]	TGI [2] [µM]	TGI [3] [µM]	TGI [4] [µM]	TGI [5] [µM]	TGI [6] [µM]	TGI [7] [µM]	TGI [8] [µM]	TGI [9] [µM]	GI50 [1] [µM]	GI50 [2] [µM]	GI50 [4] [µM]	GI50 [5] [µM]	GI50 [6] [µM]	GI50 [7] [µM]	GI50 [8] [µM]	GI50 [9] [µM]
CCOC(=O)C1SC(=Nc2ccc(C)c(C)c2)N=C1C (configuration not stated)	> 100	> 100	> 100	> 100	> 100	> 100	> 100	> 100	> 100								
CCOC(=O)N[C@@H]1C(CC(=O)OC)O[C@H]2OC(C)(C)O[C@H]21 (some centres not stated)	> 100	> 100		> 100	> 100			> 100	> 100								
COc1ccc(CN2CC(C)(C)C2=O)c(OC)c1		> 100	> 100	> 100	> 100	> 100	> 100	> 100	> 100								
Clc1cc(Cl)c2ns[s+]c2c1Cl	> 100		> 100	> 100	> 100	> 100	> 100		> 100								
CCOC(=O)/C(C)=C(/O)C(=O)OCC	> 100	> 100	> 100	> 100	> 100	> 100	> 100	> 100	> 100								
COc1cc2[nH]c3c(c2cc1OC)CCN[C@]31CC[C@]2(CC3c4c(cc(OC)c(O)c42)CCN3C)C[C@H]1OC (some centres not stated)	> 100	29.8	> 100	36.4	31.5		> 100	41.9	68.2								
COc1cc(/C=C/c2ccc(OC)c(O)c2)cc(OC)c1	72.8	42.6	90	4.54	8.47	4.49	24.1	9.92	80.5								
[N-]=[N+]=C1C(=O)NN=C1c1ccccc1	> 100	> 100	> 100	> 100	> 100	> 100		> 100	> 100								
CC1=CC(C)(C)N=C2SC(c3ccc(N)cc3)=NN12	> 100	> 100	> 100	> 100	> 100	> 100	> 100	> 66.3	> 100								
CCCC1=C(CC)C(C(=O)Nc2c(C)cccc2C)=NC(S)N1 (configuration not stated)	> 100		> 100	> 100	> 100	> 100	> 100	> 100	> 100								
O=C(c1cccc2ccccc12)N1CCC(C2CCN(C(=O)c3cccc4ccccc34)CC2)CC1	> 100		> 100	> 100	> 100	> 100		> 100	> 100								
c1ccc(C2N3CCCCC3[C@@H]3c4[nH]c5ccccc5c4CCN23)nc1 (some centres not stated)	> 100		> 100	> 100	> 100		> 100	> 100	> 100								
Nc1ccccc1/C(O)=C1/CCOC1=O	> 100		> 100	> 100		> 100	> 100	> 100	> 100								
COC(=O)Nc1nc2ccc(C3(c4ccc(F)cc4)OCCO3)cc2[nH]1	> 100	> 100		> 100	0.52	2.65	> 100	> 100	> 100	0.462	1.99	0.272	0.196	0.222	0.483	0.427	2.07
COc1ccc2c3c([nH]c2c1[N+](=O)[O-])C(C)N(C)CC3 (configuration not stated)	> 100	> 100	> 100	> 100	> 100	> 100	> 100	> 100									
CCOC(=O)CCC(=O)C1c2cccc(O)c2C(=O)c2c(O)cc(C)cc21 (configuration not stated)	3.25	2.09	3.91	0.878	0.535	1.33	3.74	5.77									
CCCN(CCC)C(=O)c1c([N+](=O)[O-])cc(C(F)(F)F)cc1[N+](=O)[O-]	> 100		> 100	> 100	> 100	60.5	> 100	> 100	> 100								
Cc1[nH]c(=O)nc2[nH][nH]c(=O)c12	> 100		> 100	> 100	> 100	> 100		> 100	> 100								
COC(=O)[C@@]12C(=O)C=CC(=O)C1C1C(=CC2C)OC2OC3(CCCCC3)OC21 (some centres not stated)	33.4	28.2	37.8	32.9			31.9	26.4	48.6								
COC(=O)C(CC(=O)Nc1ccc(C)cc1)C(=O)C(=O)Nc1c(C(C)C)cccc1C(C)C (configuration not stated)	> 100	> 100	> 100		> 100	> 100	> 100	> 100	> 100								
c1cnn(CN(Cn2cccn2)Cn2cccn2)c1	> 100		> 100	> 100	> 100	> 100	> 100	> 100	> 100								
